The record followed here is patent publication EP0094564A2, “Azolyl-methyl oxiranes, their preparation and use as medicaments and plant protecting agents” (BASF Aktiengesellschaft, priority 1982, dated 1983).

The subject of one experiment is Botrytis cinerea. The experiment in a line: Versuch 4: activity against Botrytis cinerea on paprika seedlings. The experiment is classed as in vivo. To be noted: 0,05 %ige Spritzbrühe; sprayed before inoculation; assessed after 5 days; value given as 'beispielsweise'. The text has this:
Paprikasämlinge der Sorte "Neusiedler Ideal Elite" wurden, nachdem sich 4 bis 5 Blätter gut entwickelt hatten, mit wäßrigen Suspensionen, die 80 % Wirkstoff und 20 % Emulgiermittel in der Trockensubstanz enthielten, tropfnaß gespritzt. Nach dem Antrocknen des Spritzbelages wurden die Pflanzen mit einer Konidienaufschwemmung des Pilzes Botrytis cenerea besprüht und bei 22 bis 24 C in eine Kammer mit hoher Luftfeuchtigkeit gestellt. Nach 5 Tagen hatte sich die Krankheit auf den unbehandelten Kontrollpflanzen so stark entwickelt, daß die entstandenen Blattnekrosen den überwiegenden Teil der Blätter bedeckten.

For a further experiment, the system named is Cand.alb. M. Kind of experiment: Candida albicans pseudomycelium/mycelium phase test, MIC (column M). The experiment is classed as cell-based. The note with it: in vitro, read-out: Minimale Hemmkonzentration (MHK) Cand.alb. M. From the text:
(§1) Die Wirkung gegen Dermatophyten, Bakterien und Protozonen kann nach Methoden, wie sie beispielsweise in P. Klein, Bakteriologische Grundlagen der chemotherapeutischen Laboratoriumspraxis, Springer-Verlag Berlin, 1957, beschrieben wird, aufgezeigt werden. Die überraschende Wirkung gegenüber Hefen wurde im Pseudomyzel- und Myzelphasentest mit Candida albicans nachgewiesen (vgl. DE-OS 30 10 093). Es wurde geprüft, welche minimalen Hemmkonzentrationen (MHK-Werte) im Agardilutionstest erreicht werden. In der Tabelle 1 sind die Ergebnisse zusammengefaßt.

The subject of another experiment is Cand.alb. H. The experiment in a line: Candida albicans pseudomycelium/mycelium phase test, MIC. Type of experiment: cell-based. The note with it: in vitro, column H, read-out: Minimale Hemmkonzentration (MHK) Cand.alb. H.
Text: as §1

In experiment [1] the test system is Weizenbraunrost (Puccinia recondita). Kind of experiment: Versuch 2: activity against wheat brown rust on wheat seedlings. The experiment is classed as in vivo. The note with it: 0,025; 0,006; 0,0015 %ige Spritzbrühen; sprayed 24 h after inoculation; assessed after 8 days; value given as 'beispielsweise'. Here is the method:
Blätter von in Töpfen gewachsenen Weizensämlingen der Sorte "Jubilar" wurden mit Sporen des Braunrostes (Puccinia recondita) bestäubt. Danach wurden die Töpfe für 24 Stunden bei 20 bis 22°C in eine Kammer mit hoher Luftfeuchtigkeit (90 bis 95 %) gestellt. Während dieser Zeit keimten die Sporen aus und die Keimschläuche drangen in das Blattgewebe ein. Die infizierten Pflanzen wurden anschließend mit wäßrigen Spritzbrühen, die 80 % Wirkstoff und 20 % Emulgiermittel in der Trockensubstanz enthielten, tropfnaß gespritzt. Nach dem Antrocknen des Spritzbelages wurden die Versuchspflanzen im Gewächshaus bei Temperaturen zwischen 20 und 22°C und 65 bis 70 % relativer Luftfeuchte aufgestellt. Nach 8 Tagen wurde das Ausmaß der Rostpilzentwicklung auf den Blättern ermittelt.

For a further experiment, the system named is Strept. faec. 8043. The experiment in a line: Agar dilution test, minimal inhibitory concentration in vitro. Type of experiment: cell-based. The note with it: read-out: Minimale Hemmkonzentration (MHK) Strept. faec. 8043.
Text: as §1
On the technique in general: Agar dilution tests growth on a series of plates holding different concentrations.

Another experiment deals with Staph. aur. SG 511. The experiment is described as above. The note with it: read-out: Minimale Hemmkonzentration (MHK) Staph. aur. SG 511. Type of experiment: cell-based.
Text: as §1

A further experiment concerns Mucor pus. 6. The experiment is described as above. The experiment is classed as cell-based. The note with it: read-out: Minimale Hemmkonzentration (MHK) Mucor pus. 6.
Text: as §1

The test system of a further experiment is Abs. corym. 1. The description is as above. Type of experiment: cell-based. To be noted: read-out: Minimale Hemmkonzentration (MHK) Abs. corym. 1.
Text: as §1

Another experiment has as its system Aps.fum. 2. The description is as above. The experiment is classed as cell-based. To be noted: read-out: Minimale Hemmkonzentration (MHK) Aps.fum. 2.
Text: as §1

The subject of another experiment is Trichoph. ment. 21. Described as above. To be noted: read-out: Minimale Hemmkonzentration (MHK) Trichoph. ment. 21. The experiment is classed as cell-based.
Text: as §1

The test system of a further experiment is Epid. flocc. 157. The experiment is described as above. Type of experiment: cell-based. The note with it: read-out: Minimale Hemmkonzentration (MHK) Epid. flocc. 157.
Text: as §1

For the next experiment, the system named is E.coli muta-flor. The experiment is described as above. Type of experiment: cell-based. The note with it: Escherichia coli, read-out: Minimale Hemmkonzentration (MHK) E.coli muta-flor.
Text: as §1

The test system of a further experiment is Microsp. ferrug. 5. The description is as above. The experiment is classed as cell-based. To be noted: read-out: Minimale Hemmkonzentration (MHK) Microsp. ferrug. 5.
Text: as §1

The next experiment relates to Trichom. vag. Kind of experiment: Minimal inhibitory concentration in vitro (protozoa). Type of experiment: cell-based. To be noted: read-out: Minimale Hemmkonzentration (MHK) Trichom. vag.
Text: as §1

A further experiment deals with Entamoeb hist. Described as above. Type of experiment: cell-based. The note with it: read-out: Minimale Hemmkonzentration (MHK) Entamoeb hist.
Text: as §1

A further experiment relates to Pullularia pullulans. Kind of experiment: Versuch 5: filter paper disc inhibition zone test on malt extract agar. The experiment is classed as cell-based. To be noted: 72 h, discs soaked with 0,2 ml of 200 ppm solution, 3 days at 22 to 24 °C, read-out: Wirksamkeit gegen Pullularia pullulans. How it is done:
Filtrierpäpierscheiben mit einem Durchmesser von 13 mm und einer Stärke von 1 mm werden mit 0,2 ml Lösungen getränkt, die jeweils 200 Teile Wirkstoff je Million Teile Lösung (ppm) enthalten. Die Scheiben werden dann auf einem 2 %igen Malzextraktagar in Petrischalen gelegt, die zuvor getrennt mit Sporen des holzverfärbenden Pilzes Pullularia pullulans beimpft wurden. Anschließend werden die Schalen 3 Tage lang bei 22 bis 24 °C bebrütet. Nach dieser Zeit hat sich der Pilz in den Kontrollschalen sehr gut entwickelt.
Die fungizide Wirksamkeit der Wirkstoffe wird anhand der um die Filtrierpapierscheiben herum entstandenen pilzfreien Zonen (Hemmhöfe) wie folgt beurteilt: […]

A further experiment has as its system Chaetomium globosum. Kind of experiment: Versuch 6: fungal growth on malt extract agar containing active ingredient. The note with it: 40 ppm in 5 % malt extract agar; 5 days at 25 °C; growth score. The experiment is classed as cell-based. Also noted: key: 0 = kein Pilzwachstum (Pilzmyzel abgetötet); 1 = geringes Pilzwachstum (bis 1/3 der Agaroberfläche bewachsen); 3 = mittleres Pilzwachstum (bis 2/3 der Agaroberfläche bewachsen); 5 = ungehemmtes Pilzwachstum (gesamte Agaroberfläche bewachsen). The text has this:
(§2) Die Wirkstoffe werden in Aceton gelöst, in Mengen von 40 ppm einem verflüssigten 5 %igen Malzextraktagar zugesetzt. Der Agar wird in Petrischalen ausgegossen und nach dem Erstarren werden die fungizidhaltigen Nähragarplatten zentral mit Myzel der holzzerstörenden Pilze Coniophora puteana und Trametes versicolor, des Moderfäule und Stockflecken verursachenden Pilzes Chaetomium globosum sowie mit Sporen des grünen Holzschimmels Trichoderma viride beimpft.
(§3) Nach fünftägiger Bebrütung der Schalen bei 25 °C wird die Entwicklung der Pilzkolonien auf dem Nährboden im Vergleich mit der Kontrolle (ohne Wirkstoff-Zusatz) beurteilt: • 0 = kein Pilzwachstum (Pilzmyzel abgetötet) • 1 = geringes Pilzwachstum (bis 1/3 der Agaroberfläche bewachsen) • 3 = mittleres Pilzwachstum (bis 2/3 der Agaroberfläche bewachsen) • 5 = ungehemmtes Pilzwachstum (gesamte Agaroberfläche bewachsen)

The next experiment concerns Trichoderma viride. The experiment is described as above. The experiment is classed as cell-based. Also noted: key: 0 = kein Pilzwachstum (Pilzmyzel abgetötet); 1 = geringes Pilzwachstum (bis 1/3 der Agaroberfläche bewachsen); 3 = mittleres Pilzwachstum (bis 2/3 der Agaroberfläche bewachsen); 5 = ungehemmtes Pilzwachstum (gesamte Agaroberfläche bewachsen). To be noted: 40 ppm in 5 % malt extract agar; 5 days at 25 °C; growth score.
Text: as §2, §3

For a further experiment, the system named is Trametes versicolor. The experiment is described as above. Type of experiment: cell-based. Also noted: key: 0 = kein Pilzwachstum (Pilzmyzel abgetötet); 1 = geringes Pilzwachstum (bis 1/3 der Agaroberfläche bewachsen); 3 = mittleres Pilzwachstum (bis 2/3 der Agaroberfläche bewachsen); 5 = ungehemmtes Pilzwachstum (gesamte Agaroberfläche bewachsen). To be noted: 40 ppm in 5 % malt extract agar; 5 days at 25 °C; growth score.
Text: as §2, §3

A further experiment concerns Coniophora puteana. Described as above. Type of experiment: cell-based. Also noted: key: 0 = kein Pilzwachstum (Pilzmyzel abgetötet); 1 = geringes Pilzwachstum (bis 1/3 der Agaroberfläche bewachsen); 3 = mittleres Pilzwachstum (bis 2/3 der Agaroberfläche bewachsen); 5 = ungehemmtes Pilzwachstum (gesamte Agaroberfläche bewachsen). The note with it: 40 ppm in 5 % malt extract agar; 5 days at 25 °C; growth score.
Text: as §2, §3

In experiment [2] the test system is Weizenmehltau (Erysiphe graminis var. tritici). The experiment in a line: Versuch 1: activity against wheat powdery mildew on wheat seedlings. Type of experiment: in vivo. The note with it: 0,025; 0,006; 0,0015 %ige Spritzbrühen; sprayed 24 h before inoculation; assessed after 7 days; value given as 'beispielsweise'. Here is the method:
Blätter von in Töpfen gewachsenen Weizenkeimlingen der Sorte "Jubilar" wurden mit wäßriger Spritzbrühe, die 80 % (Gew.%) Wirkstoff und 20 % Emulgiermittel in der Trockensubstanz enthielt, besprüht und 24 Stunden nach dem Antrocknen des Spritzbelages mit Oidien (Sporen) des Weizenmehltaus (Erysiphe graminis var. tritici) bestäubt. Die Versuchspflanzen wurden anschließend im Gewächshaus bei Temperaturen zwischen 20 und 22 °C und 75 bis 80 % relativer Luftfeuchtigkeit aufgestellt. Nach 7 Tagen wurde das Ausmaß der Mehltauentwicklung ermittelt.

Experiment [3] has as its system Gurkenmehltau (Erysiphe cichoracearum). Kind of experiment: Versuch 3: activity against cucumber powdery mildew on cucumber seedlings. The experiment is classed as in vivo. To be noted: 0,025 %ige Spritzbrühe; sprayed about 20 h after inoculation; assessed after 21 days; value given as 'beispielsweise'. From the text:
Blätter von in Töpfen gewachsenen Gurkenkeimlingen der Sorte "Chinesische Schlange" wurden im Zweiblattstadium mit einer Sporensuspension des Gurkenmehltaus (Erysiphe cichoracearum) besprüht. Nach etwa 20 Stunden wurden die Versuchspflanzen mit wäßriger Spritzbrühe, die 80 % Wirkstoff und 20 % Emulgiermittel in der Trockensubstanz enthielt, bis zur Tropfnässe besprüht. Nach dem Antrocknen des J Spritzbelages wurden sie anschließend im Gewächshaus bei Temperaturen zwischen 20 und 22^00 und 70 bis 80 % relativer Luftfeuchtigkeit aufgestellt. Zur Beurteilung der Wirksamkeit der neuen Stoffe wurde das Ausmaß der Pilzentwicklung nach 21 Tagen beurteilt.

In brackets after ≈: the same amount, converted by molar mass.

Take `COc1cccc(C2OC2(Cn2cncn2)c2ccc(Cl)cc2)c1` (single isomer, unassigned) [Beispiel 30]: the “fungizide Wirkung gegen Botrytis cinerea an Paprika” value in the experiment on Botrytis cinerea is reported as 97%. Moreover, the MIC in the experiment on Cand.alb. M was 2 µg/mL (≈ 5.85 µM); in the experiment with Cand.alb. H, 64 µg/mL (≈ 187 µM); with Strept. faec. 8043 it was over 128 µg/mL; with Staph. aur. SG 511, over 128 µg/mL; in the experiment with Mucor pus. 6, 8 µg/mL (≈ 23.4 µM); in the experiment on Abs. corym. 1, 16 µg/mL (≈ 46.8 µM). In addition, the MIC is over 128 µg/mL in the experiment with Aps.fum. 2; 8 µg/mL (≈ 23.4 µM) with Trichoph. ment. 21; 8 µg/mL (≈ 23.4 µM) with Epid. flocc. 157; over 128 µg/mL in the experiment on E.coli muta-flor; 2 µg/mL (≈ 5.85 µM) with Microsp. ferrug. 5; over 16 µg/mL in the experiment on Trichom. vag.. The MIC with Entamoeb hist. is over 1 µg/mL. In experiment [1], the “fungizide Wirkung gegen Weizenbraunrost” value is recorded as 100%.
As to `CC1(Cn2cncn2)OC1c1ccc(Cl)cc1Cl` (single isomer, unassigned) [Beispiel 22], the zone of inhibition at 200 ppm in the experiment on Pullularia pullulans is over 6 mm. The “Wirksamkeit gegen Chaetomium globosum” value in the experiment on Chaetomium globosum is on record as 1. Also, the “Wirksamkeit gegen Trichoderma viride” value in the experiment with Trichoderma viride was found to be 1. Moreover, the “Wirksamkeit gegen Trametes versicolor” value with Trametes versicolor is 0. The “Wirksamkeit gegen Coniophora puteana” value with Coniophora puteana worked out at 1.
As for `Fc1ccc(C2OC2(Cn2cncn2)c2ccc(Cl)cc2)cc1` (single isomer, unassigned) [Beispiel 50], the zone of inhibition at 200 ppm in the experiment with Pullularia pullulans is over 6 mm. In the experiment on Chaetomium globosum, the “Wirksamkeit gegen Chaetomium globosum” value is given as 0. In the experiment with Trichoderma viride, the “Wirksamkeit gegen Trichoderma viride” value is 0. For the same compound, the “Wirksamkeit gegen Trametes versicolor” value with Trametes versicolor worked out at 0. Also, the “Wirksamkeit gegen Coniophora puteana” value with Coniophora puteana is recorded as 0.
As for `Clc1ccc(C2OC2(Cn2cncn2)c2ccc(-c3ccccc3)cc2)cc1` (single isomer, unassigned) [Beispiel 42], the zone of inhibition at 200 ppm with Pullularia pullulans was over 6 mm. Further, in the experiment on Botrytis cinerea, the “fungizide Wirkung gegen Botrytis cinerea an Paprika” value was determined as 97%. For the same compound, the “Wirksamkeit gegen Chaetomium globosum” value with Chaetomium globosum is reported as 0. In addition, the “Wirksamkeit gegen Trichoderma viride” value with Trichoderma viride is listed as 0. Also, the “Wirksamkeit gegen Trametes versicolor” value with Trametes versicolor stood at 0. In addition, the “Wirksamkeit gegen Coniophora puteana” value in the experiment with Coniophora puteana came to 0. Besides, the “fungizide Wirkung gegen Weizenbraunrost” value in experiment [1] is recorded as 100%. In [2], the “fungizide Wirkung gegen Weizenmehltau” value came to 100%. Moreover, in [3], the “fungizide Wirkung gegen Gurkenmehltau” value was 100%.
